Patent publication US20150315218A1, “SALTS OF PRODRUGS OF PIPERAZINE AND SUBSTITUTED PIPERIDINE ANTIVIRAL AGENTS” (Bristol-Myers Squibb Company, priority 2004, published 2015)
“Also recorded” adds a separate entry of the source. Counter-ions that a name gives are not always drawn. Like-named read-outs stand apart in the source and are kept apart here. Values belong to the molecule of their own block, whether it stands above or below them.

Tests used:
[1] = monkey
[2] = dog, 10 μM
[3] = monkey, 10 μM
[4] = 2-week oral dose rat toxicology / TK study F; assay type: in vivo; details: rat, plasma, historical; for AUC(0-t): read-out: Mean AUC0-24 hr
Protocol: In the 2-week oral rat study F (n=six/sex/group), Compound IVe was administered at daily doses of 15, 75, or 200 mg/kg. […] On Day 14, AUC0-24 h values were slightly higher in females (≦644 μg*hr/ml) compared to males (526.88 μg*hr/ml) at dosages 200 mg/kg/day. The oral (PO) results from Study F are in Table 5.

Caco-2 cells = test: Hydrolysis of prodrug in Caco-2 cells; assay type: in vitro ADME
[5] = Solution and solid stability; assay type: physicochemical
[6] = Effect of food on oral absorption of IVa in dogs after Iab or IVa capsules; assay type: in vivo, dog; details: for AUC / Cmax / Tmax / half-life: dog, po, 20 mg/kg
Protocol: To study the effect of food on the oral absorption of IVa after administration of Iab and IVa, these two compounds were administered in capsules as solid to a group of three dogs in a cross-over fashion under overnight fasting and fed conditions. There was a one-week washout period between each study. Iab was administered at 200 mg per dog (ca 20 mg/kg) of IVa equivalent; IVa was administered in a clinical capsule formulation at 200 mg per dog (ca 20 mg/kg). In the studies where the dogs were fed, the following meal was prepared: 2 slices of bacon, 2 eggs, 2 pieces of toast with butter and jelly, 4 oz. hash browns and 8 oz. of whole milk. After homogenization using a laboratory blender, the meal was equally divided into five portions and kept frozen. Before the study, the meals were thawed and each dog was fed one portion.

[7] = Capsule formulation studies of IVa (clinical form, spray dried form) vs Iab in fasted dogs; assay type: in vivo, dog; details: capsules, 20 mg/kg of IVa equivalent
Protocol: Additional formulation studies of IVa were conducted in fasted dogs (n=2 per dose group). The dogs were administered either the clinical form or the spray dried form of IVa in capsules. The clinical capsule form of IVa was administered at a single dose of 20 mg/kg. The spray dried form of IVa was administered at 20, 75 and 200 mg/kg.

[8] = 2-week rat toxicity study (5, 50 or 500 mg/kg BID); assay type: in vivo; details: 2 weeks, in-life phase completed
Protocol: A 2-week rat toxicity study using dosages of 5, 50, or 500 mg/kg BID to support the IND is ongoing (3).

[9] = Single dose study of Compound IVa in healthy human volunteers (capsule/solution, fasted/fed; first-in-human); assay type: in vivo; details: for AUCtotal / Cmax: n = 6
Protocol: The parent compound IVa has been studied in human clinical trials. The compound was dosed in healthy human volunteers.
It is also readily apparent from the oral AUCs, that increases in drug exposure increased much more slowly and less than proportionally with dose. […] Between 200-800 mg dose range the increases in systemic exposure is dose-related although less than dose-proportional, while such exposure is dose independent above dose of 800 mg.
Dosing with a solution increased Compound IVa exposure.
The AUCs after a fed treatment were approximately 2.5 and 4.7 fold for 800 and 1800 mg doses, respectively, of those of the fasted treatment.
For the 800 mg capsule with food, the average plasma concentration is 1001 and 218 ng/mL at 8 and 12 hours post dose, respectively. The results supported a ql2 h or q8 h dosing regimen for a targeted Cmin value of at least 200 ng/mL after multiple doses. This value was selected based on preclinical data.

[10] = Multiple dose study of Compound IVa in healthy humans; assay type: in vivo, human; details: multiple Q12H doses, 14 days
Protocol: A placebo-controlled, ascending multiple-dose study to evaluate the safety, tolerability and pharmacokinetics of Compound IVa in healthy human subjects was carried out. Dosing was continued at 12 h intervals for 14 days. […] Thus, the exposure was better when dosing was combined with a high fat meal and exposure increases with dose were higher with a high fat meal.

[11] = Cytotoxicity assay (XTT dye reduction) in MT-2 cells; assay type: cell-based; details: human, six days
[12] = 1800 mg capsule, high fat meal vs fasted
[13] = fed (high fat meal), dose ratio 1:2.3 (800 mg vs. 1800 mg)
[14] = in vivo, dogs, IVa Clinical Form Capsules, Fasting
[15] = in vivo, dogs, IVa Clinical Form Capsules, Fed
[16] = plasma, IVa after Iab dry-filled capsules, Fasting
[17] = plasma, IVa after Iab dry-filled capsules, Fed
[18] = dogs, IVa Clinical Form Capsules (20 mg/kg)

conversion of prodrug to parent in blood containing EDTA [1]: < 2%
Icb ([1]; 0 min): 12 µM
Icb ([1]; 15 min): 12 µM
Icb ([1]; 90 min): 11 µM
Icb ([2]; 0 min): 10 µM
Icb ([2]; 15 min): 9.7 µM
Icb ([2]; 90 min): 6.9 µM
Icb ([3]; 0 min): 9.3 µM
Icb ([3]; 15 min): 7.1 µM
Icb ([3]; 90 min): 1.1 µM
Compound: COc1cnc(-n2cnc(C)n2)c2c1c(C(=O)C(=O)N1CCN(C(=O)c3ccccc3)CC1)cn2COP(=O)(O)O [Icb, [3-[(4-benzoylpiperazin-1-yl)(oxo)acetyl]-4-methoxy-7-(3-methyl-1H-1,2,4-triazol-1-yl)-1H-pyrrolo[2,3-c]pyridin-1-yl]methyl dihydrogen phosphate, 2-amino-2-(hydroxymethyl)propane-1,3-diol salt (1:1)]

Compound: COc1cnc(-n2cnc(C)n2)c2[nH]cc(C(=O)C(=O)N3CCN(C(=O)c4ccccc4)CC3)c12 [IVc]
Cmax ([4]; rats PO 15 mg/kg (soln), 80/10/10 PEG-400/Ethanol/0.1N NaOH): 42 µM
AUC(0-t) ([4]; rats PO 15 mg/kg (soln)): 418 µM·h
Cmax ([4]; rats PO 75 mg/kg (susp)): 65 µM
AUC(0-t) ([4]; rats PO 75 mg/kg (susp)): 792 µM·h
Cmax ([4]; rats PO 200 mg/kg (susp)): 76 µM
AUC(0-t) ([4]; rats PO 200 mg/kg (susp)): 1080 µM·h

Compound: O=C(C(=O)N1CCN(C(=O)c2ccccc2)CC1)c1cn(COP(=O)(O)O)c2c(-n3ccnn3)ncc(F)c12 [Ibb, [3-[(4-benzoylpiperazin-1-yl)(oxo)acetyl]-4-fluoro-7-(1H-1,2,3-triazol-1-yl)-1H-pyrrolo[2,3-c]pyridin-1-yl]methyl dihydrogen phosphate, L-lysine salt (1:1)]
hydrolysis to parent in Caco-2 cells (Caco-2 cells): completely hydrolyzed
solution and solid stabilities [5]: acceptable solution and solid stabilities

AUC of IVa from Iab capsules (fasted dogs) relative to fed dogs given IVa clinical capsule ([6]; 200 mg/dog of IVa equivalent): 4 times
Cmax of IVa from Iab capsules (fasted dogs) relative to fed dogs given IVa clinical capsule ([6]; 200 mg/dog of IVa equivalent): 6 times
Cmax of IVa from Iab capsules relative to IVa clinical capsule in fasted dogs ([6]; fasted dogs, 200 mg/dog of IVa equivalent): 58 times
AUC of IVa from the prodrug relative to the clinical form of IVa [7]: 37 times
Cmax of IVa from the prodrug relative to the clinical form of IVa [7]: 45 times
Compound: COc1cnc(OC)c2c1c(C(=O)C(=O)N1CCN(C(=O)c3ccccc3)CC1)cn2COP(=O)(O)O [Iab, {3-[(4-benzoylpiperazin-1-yl)(oxo)acetyl]-4,7-dimethoxy-1H-pyrrolo[2,3-c]pyridin-1-yl}methyl dihydrogen phosphate, L-lysine salt (1:1)]
difference in AUC and Cmax of IVa between fasted and fed dogs ([6]; dogs receiving Iab capsules): No significant differences; also recorded: not significantly different
in-life observations [8]: no noteworthy in-life observations
solution and solid stabilities [5]: acceptable solution and solid stabilities

Compound: COc1ncc(OC)c2c(C(=O)C(=O)N3CCN(C(=O)c4ccccc4)CC3)c[nH]c12 [IVa, N-(benzoyl)-N′-[(4,7-dimethoxy-6-azaindol-3-yl)-oxoacetyl]piperazine]
AUC of the solution relative to the capsule ([9]; 200 mg): ~3 fold
Cmax of the solution relative to the capsule ([9]; 200 mg): approximately 8 fold
relative bioavailability (fed vs. fasted) ([9]; 800 mg): 293%
AUCtotal ([9]; 800 mg, Fasting): 22 ± 12 µM·h
AUCtotal ([9]; 800 mg, Fed): 53 ± 10 µM·h
relative bioavailability (fed vs. fasted) ([9]; 1800 mg): 509%
AUC Fed/Fasting Ratio [9, 12]: 4.3
Cmax Fed/Fasting Ratio [9, 12]: 4.5
AUCtotal ([9]; 1800 mg, Fasting): 19 ± 5.8 µM·h
AUCtotal ([9]; 1800 mg, Fed): 82 ± 16 µM·h
ratio of AUC [9, 13]: 1.5
ratio of Cmax [9, 13]: 1.6
bioavailability ([9]; human, plasma, oral, 200 mg, read-out: relative bioavailability of the capsule to the solution formulation): 32%
Cmax ([9]; human, plasma, oral, 800 mg, Fasting): 3.7 ± 1.1 µM
Cmax ([9]; human, plasma, oral, 800 mg, Fed): 9.8 ± 1.3 µM
Cmax ([9]; human, plasma, oral, 1800 mg, Fasting): 3.3 ± 0.84 µM
Cmax ([9]; human, plasma, oral, 1800 mg, Fed): 15 ± 5 µM
concentration at 8 h ([9]; human, plasma, oral, 800 mg capsule with food, 8 hours post dose): 1000 ng/mL
concentration at 12 h ([9]; human, plasma, oral, 800 mg capsule with food, 12 hours post dose): 218 ng/mL
Tmax ([9]; human, plasma, oral, fed, read-out: median Tmax): 4 h
accumulation [10]: ≤ 1.5 fold
AUC ([6]; in vivo, dogs, IVa Clinical Form Capsules (20 mg/kg), Fed): 96 ± 10 µM·h
Cmax [6, 14]: 1.2 ± 0.22 µM
Tmax [6, 14]: 3.3 ± 1.2 h
Cmax [6, 15]: 11 ± 0.99 µM
Tmax [6, 15]: 4 h
Cmax [6, 16]: 70 ± 12 µM
Tmax [6, 16]: 2 h
half-life [6, 16]: 4.2 ± 0.42 h
Cmax [6, 17]: 130 ± 102 µM
Tmax [6, 17]: 1.5 ± 0.87 h
half-life [6, 17]: 3.2 ± 1 h
AUC ([6]; plasma, IVa in dogs after Iab dry-filled capsules (20 mg/kg of IVa equivalent), Fasting, n = 3): 414 ± 70 µM·h
AUC ([6]; plasma, IVa in dogs after Iab dry-filled capsules (20 mg/kg of IVa equivalent), Fed): 422 ± 57 µM·h
AUC ([6]; plasma, dogs, IVa Clinical Form Capsules (20 mg/kg), Fasting, n = 3): 11 ± 1.4 µM·h
half-life ([6]; plasma, dogs, IVa Clinical Form Capsules, Fasting): 5.3 ± 2.7 h
half-life ([6]; plasma, dogs, IVa Clinical Form Capsules, Fed): 8 ± 3.1 h
improvement in AUC and Cmax (exposure) in fed vs fasted dogs ([6]; dogs receiving IVa clinical capsule, high fat meal): 9 fold
AUCtot Fed/Fasting Ratio [6, 18]: 9.0 ± 2.2
Cmax Fed/Fasting Ratio [6, 18]: 9.1 ± 0.92
CC50 at 6 days [11]: > 10 µM
